Assays:
[1] = tested on: Straub tail induced by morphine; test: Anti-Straub Tail test, antagonism of morphine-induced Straub tail; type: in vivo, Female CF1 S mice; settings: relative to naloxone
Procedure: Narcotic analgesics produce in mice an erection and arching of the tail (90° or more) which is referable to spinal cord stimulation. This Straub tail reaction is not produced by other analgesics, including the narcotic antagonists.
H. B. Dayton and P. S. Wolf, The Pharmacologist, 10, 189 (1968)]. This property is the basis of a mouse test for narcotic antagonists.
Female CF1 S mice (fasted 17-21 hrs.), 5 per dose, were injected orally or subcutaneously (loose skin inside hind limb) with test drug at 0.67, 2, 6, 18, 54 and 162 mg/kg or other appropriate doses in 0.20 ml 1% Methocel® per mouse. Ten minutes later, 40 mg/kg (base weight) of morphine sulfate in 0.20 ml 1% Methocel® per mouse was given subcutaneously (nape of neck). The mice were observed continuously for the next 20 minutes after the first mouse of a group of 30 had received morphine. Prevention of a 90° Straub tail during this observation period was taken as indication of narcotic antagonist ability.

[2] = tested on: pain induced by phenylquinone; test: Phenylquinone writhing test (PQW), analgesic activity; type: in vivo, female white mice; settings: oral
Procedure: A standard procedure for detecting and comparing the analgesic activity of a series of compounds for which there is good correlation with human efficacy is the standard phenylquinone writhing test (PQW) modified from Siegmund, et al., Proc. Soc. Exp. Biol. Med., 95, 729 (1957). A test compound suspended in 1% methocellulose was given orally to fasted (17-21 hours) female white mice, 5-20 animals per double blind test. Aqueous (0.1% phenyl-p-benzoquinone) phenylquinone was injected intraperitoneally at 24 minutes later using 0.20 ml per mouse. […] The effective analgesic dose for 50% of the mice (ED50) was calculated by the moving average method of Thompson, W. R., Bact. Rev., 11, 115-145 (1947).

[3] = tested on: Straub tail induced by morphine; settings: literature, Blumberg et al. 1968; cited from earlier work

Structure (SMILES)	analgesic activity (in words) [2]	prevention of morphine-induced Straub tail (in words) [3]	further results
C[C@H]1CC[C@@]2(O)[C@H]3Cc4ccc(O)c5c4[C@@]2(CCN3CC2CC2)[C@H]1O5 [Compound 1]			narcotic antagonism (in words) [1]: almost the antagonistic activity of naloxone
COc1ccc2c3c1O[C@H]1[C@@H](C)CC[C@@]4(O)[C@@H](C2)N(CC2CCCO2)CC[C@]314 (some centres unmarked) [Compound 6]	weakly analgetic		
C[C@H]1CC[C@@]2(O)[C@H]3Cc4ccc(O)c5c4[C@@]2(CCN3CC2CCCO2)[C@H]1O5 (some centres unmarked) [Compound 7]	weakly analgetic		
C=CCN1CC[C@]23c4c5ccc(O)c4O[C@H]2C(=O)CC[C@@]3(O)[C@H]1C5 [Naloxone]		prevent the induction of Straub tail in mice	
C=CCN1CC[C@]23c4c5ccc(O)c4O[C@H]2[C@@H](O)C=C[C@H]3[C@H]1C5 [nalorphine]		prevent the induction of Straub tail in mice	

Source: patent US4322426A, “17-Substituted-6-desoxy-7,8-dihydro-6α-methylnoroxymorphone narcotic antagonists” (priority 1980, dated 1982)
